The test system of experiment [1] is Aβ1-42. Description: Amyloid-beta (Aβ) disaggregation test by thioflavin-T assay. Conditions: 50 µM Aβ1-42 aggregated 24 hours at 37 °C, then compound 0-500 µM for 48 hours; concentration disaggregating 50 % compared to the control. Type of experiment: biochemical. As for the experimental part:
(§1) Each compound was dissolved in DMSO to a concentration of 10 mM. Subsequently, the compound was diluted with 6 % DMSO (in DW) and used.
(§2) Specifically, amyloid-beta and tau solutions were prepared by dissolving Aβ1-42 or Tau-RD3 (Tau repeat domain 3) monomer in DMSO to a concentration of 10 mM. Thereafter, each solution was diluted with DW to a concentration of 100 µM and stored on ice. Meanwhile, thioflavin-T was dissolved in 50 mM glycine buffer (pH 8.5) to a concentration of 5 mM. Thereafter, the resulting solution was diluted with 50 mM glycine buffer (pH 8.5) to a concentration of 5 µM and stored in a dark room while light was blocked.
(§3) Each of the amyloid-beta and tau solutions prepared according to Experimental Example 1.1 was added to a 1.5 mL microcentrifuge tube to a concentration of 50 µM or 35 µM, and then a reaction was allowed to occur therebetween at 37 °C for 24 hours. Each of the 1.5 mL microcentrifuge tubes in which amyloid-beta aggregation and tau aggregation had been completed was treated with each compound at a concentrated of 500 µM to 0 µM through serial dilution, and then a further reaction was allowed to occur therebetween at 37 °C for 48 hours. 25 µL of the reaction solution in which the reaction had been completed was added to each well of a 96-well plate for fluorescence analysis, and 75µL of the previously prepared thioflavin-T solution was added to each well. After a reaction was allowed to occur at room temperature in the dark for 5 minutes, fluorescence values were measured at excitation 450 nm and emission 485 nm by using a multi-mode microplate reader.
(§4) The fluorescence value of a group (control) treated with amyloid-beta or tau alone, followed by aggregation for 72 hours was converted into a percentage value and expressed as 100, and amyloid-beta and tau aggregates, in which aggregation had been completed upon reaction for 24 hours, were treated with each compound at each concentration and a further reaction was allowed to occur therebetween for 48 hours, and then fluorescence values thereof were measured and converted into relative values. […]

For experiment [2], the system named is Tau-RD3 (Tau repeat domain 3). In words: Tau disaggregation test by thioflavin-T assay. Format: biochemical. The following applies: 35 µM Tau-RD3 aggregated 24 hours at 37 °C, then compound 0-500 µM for 48 hours; concentration disaggregating 50 % compared to the control. The method, then:
as §1, §2, §3, §4

For orientation: EC50 means the concentration at which the effect is half-maximal. A low value points to an effect from little substance.

Consider “2-(4-methoxyphenyl)-3-(5-methylthiazol-4-yl)-6-(2-phenoxyethoxy)-1H-inden-1-one [Compound 21]”, for which the figures for the EC50 in experiment [1] and in experiment [2] were 5.2 µM and 173 µM, respectively.

With “6-(2-(4-methoxyphenoxy)ethoxy)-3-(5-methylthiazol-4-yl)-2-(4-(trifluoromethyl)phenyl)-1H-inden-1-one [Compound 32]”, the EC50 in experiment [1] is 161 µM; in experiment [2], greater than 500 µM.

In the case of “6-(3-phenylpropoxy)-3-(1H-pyrazol-3-yl)-2-(pyridin-3-yl)-1H-inden-1-one [Compound 7]”, the figures for the EC50 in experiment [1] and in experiment [2] were 194 µM and 133 µM, respectively.

The values are drawn from patent EP4549436A1, “NOVEL INDENONE DERIVATIVES AND USES THEREOF” (Amyloid Solution Inc., priority 2022, dated 2024).
